Earlier results, collected in US9549925B2, “Lipid-based compositions of antiinfectives for treating pulmonary infections and methods of use thereof” (Insmed Incorporated, priority 2005, dated 2017).

Details: free tobramycin, nebulized, nominal dose 300 mg; absorption into the systemic circulation

absorption half-life from the lung: about 1.5 hr
SMILES: NC[C@H]1O[C@H](O[C@H]2[C@H](O)[C@@H](O[C@H]3O[C@H](CO)[C@@H](O)[C@H](N)[C@H]3O)[C@H](N)C[C@@H]2N)[C@H](N)C[C@@H]1O [tobramycin, Tobramycin]
